One data set relates to 5XFAD mice. Nature of the data set: Amyloid plaque staining and Aβ ELISA in 5XFAD mice. Type of data set: in vivo, mouse. The conditions noted are these: oral once daily for 3 months. Here is the method: A. Thioflavin-S staining of amyloid plaques in the hippocampus (HP), motor cortex (MC), and frontal cortex (FC) of 5XFAD mouse brain sections. Scale bar, 50 μm. B. Quantitative analysis of amyloid plaques. […] F. The percentage of time spent in the target quadrant in the probe trail.
Free-floating 30-μm-thick serial sections were treated with 0.3% hydrogen peroxide for 10 min, and then incubated with anti-AEP-cleaved APP (1:500) or anti-Aβ (1:500) overnight. The signal was developed using Histostain-SP kit (#956543, invitrogen) according to the manufacturer's instructions.
After rinsed in distilled water, the sections were transferred to blocking solution containing 1% sodium hydroxide and 0.9% hydrogen peroxide for 20 min. The sections were incubated for 5 s in 0.25% acidic acid, then washed in distilled water and stained for 5 min with 0.0125% Thioflavin-S in 50% ethanol. The sections were washed with 50% ethanol and placed in distilled water. Then the sections were covered with glass cover using mounting solution.
The mice brains were homogenized in 8X mass of 5 M guanidine HCl/50 mM Tris HCl (pH 8.0), and incubated at room temperature for 3 h. Then the samples were diluted with cold reaction buffer (phosphate buffered saline with 5% BSA and 0.03% Tween 20, supplemented with protease inhibitor cocktail), and centrifuged at 16 000 g for 20 min at 4° C. The supernatant were analysed by human Aβ42 ELISA kit according to the manufacturer's instructions (KHB3441, Invitrogen). The Aβ42 concentrations were determined by comparison with the standard curve.

Another data set relates to Caspase-3. Nature of the data set: OGD in primary neurons, Caspase activity. Type of data set: cell-based. The conditions noted are these: 0.1 μM or 1.0 μM compound. Here is the method:
(§1) A. AEP activity, measured in primary neuronal cultures with 5 μM Cbz-Ala-Ala-Asn-AMC (x-axis denotes neurons were treated with 0.1 μM or 1.0 μM specified compound). B. Caspase activity, measured in primary neuronal cultures with 5 μM Ac-Asp-Glu-Val-Asp-AMC. C. Cathepsin activity, measured in primary neuronal cultures with 5 μM D-Val-Leu-Lys-AMC. D. Inhibition of APP cleavage. Lysates of primary cortical neurons pre-incubated with compounds for 30 min, underwent OGD for 4 hrs, were reperfused for 18 hrs (normoxia neurons remained at normoxic conditions). E. APP can be cleaved in a dose-dependent manner. Lysates of primary cortical neurons pre-incubated with compounds for 30 min, underwent OGD for 4 hrs, were reperfused for 18 hrs (normoxia neurons remained at normoxic conditions).
(§2) Depriving cells of oxygen and glucose is a cellular model that is employed to trigger acidosis in cultured cells. The efficacy of the compounds in a cellular model of oxygen-glucose deprivation (OGD) was determined in an effort to mimic the effects of stroke in primary cultured neurons. As a result of depriving neurons of oxygen and glucose-containing medium, AEP activity was doubled (FIG. 7A, ‘DMSO-Norm’ compared to ‘DMSO-OGD’), while Caspase-3 and Cathepsin activities remained relatively unchanged. […]

A further data set concerns the target CYP3A4 (Homo sapiens, UniProt P08684). As to the kind of experiment: CYP inhibition screening, CYP3A4-Midazolam. Format: in vitro ADME.
The next data set relates to AEP. Nature of the data set: Oxygen-glucose deprivation (OGD) in primary neurons, AEP activity. Type of data set: cell-based. The conditions noted are these: 0.1 μM or 1.0 μM compound. Here is the method: as §1, §2
The subject of data set [1] is cleavage of the amyloid precursor protein (APP). As to the kind of experiment: OGD in primary cortical neurons, APP cleavage (immunoblot). Format: cell-based. The method, then: as §1
Depriving cells of oxygen and glucose is a cellular model that is employed to trigger acidosis in cultured cells. The efficacy of the compounds in a cellular model of oxygen-glucose deprivation (OGD) was determined in an effort to mimic the effects of stroke in primary cultured neurons. As a result of depriving neurons of oxygen and glucose-containing medium, AEP activity was doubled (FIG. 7A, ‘DMSO-Norm’ compared to ‘DMSO-OGD’), while Caspase-3 and Cathepsin activities remained relatively unchanged. […] Cleavage of APP is observed in response to only DMSO treatment (FIG. 7D, lane 2), and it appears that upon the treatment of 1 μM of compounds 10, 11, and 12, and just 0.1 μM of compounds 31, 38 and 64, the cleavage was blocked, presumably due to AEP inhibition.
Compounds were pre-incubated with primary culture neurons, DIV13, for 30 min. The medium was exchanged for glucose-free DMEM and neurons were de-gased and incubated at 37° C., 95% N2/5% CO2 for 4 hrs with compounds. The medium was exchanged for DMEM and supplemented with compounds, then neurons were reperfused for 18 hrs under normoxic conditions. The neuronal lysates were prepared for AEP, Caspase-3 and Cathepsin assays. Moreover, immunoblotting analysis was conducted with the neuronal lysates using anti-APP, anti-AEP antibodies.
(In western blotting, separated proteins are transferred to a membrane and probed.)

The conditions of data set [2]: PAMPA.
The next data set concerns the target CYP2C9 (Homo sapiens, UniProt P11712). As to the kind of experiment: CYP inhibition screening, CYP2C9. Format: in vitro ADME.
A further data set relates to Cathepsin. As to the kind of experiment: OGD in primary neurons, Cathepsin activity. Type of data set: cell-based. The conditions noted are these: 0.1 μM or 1.0 μM compound. The method, then: as §1, §2
Data set [3] addresses T1, AEP in human B lymphoblastoid Pala cells (Homo sapiens, UniProt Q99538).
T1 construct: human B lymphoblastoid pala cells, which are rich in endogenous AEP; endogenous in cells; host or cells: Pala cells (human B lymphoblastoid)
As to the kind of experiment: IC50 assays in intact Pala cells. Type of data set: cell-based. The conditions noted are these: 2 hr incubation, residual AEP activity in lysate. Here is the method: The cells were incubated with inhibitors for 2 hrs then cells washed, harvested and lysed and the residual enzymatic activity was determined. Lysate was normalized by Bradford assay and the experiment was performed in triplicate and the mean results and SEM were plotted.
In an attempt to assess the activity of the compounds in intact cells, the compounds were incubated with human B lymphoblastoid pala cells, which are rich in endogenous AEP and have been used for inhibiting AEP in cellular assay.
Human B Lymphoblastoid Pala cells, which express high concentrations of AEP, were cultured in RPMI-1640, supplemented with 10% FBS, 2 mM L-Glutamine, 100 units/mL Penicillin, 100 μg/mL Streptomycin. Various concentrations of each compound were incubated with the Pala cells for 2 hr at 37° C. Cells were collected, washed twice with PBS and lysed in Lysis Buffer (20 mM Citric Acid, 60 mM Disodium Hydrogen Orthophosphate, 1 mM EDTA, 0.1% CHAPS, pH 5.8). The protein concentrations were normalized by Bradford assay and lysates were assayed with 5 μ,M Cbz-Ala-Ala-Asn-AMC. […] Data were analyzed with GraFit version 5.0.11 software package.

Entries after “also recorded” stand apart in the source; their conditions may differ. Bounds are passed on as bounds.

CYP3A4, sequence (P08684 whole entry): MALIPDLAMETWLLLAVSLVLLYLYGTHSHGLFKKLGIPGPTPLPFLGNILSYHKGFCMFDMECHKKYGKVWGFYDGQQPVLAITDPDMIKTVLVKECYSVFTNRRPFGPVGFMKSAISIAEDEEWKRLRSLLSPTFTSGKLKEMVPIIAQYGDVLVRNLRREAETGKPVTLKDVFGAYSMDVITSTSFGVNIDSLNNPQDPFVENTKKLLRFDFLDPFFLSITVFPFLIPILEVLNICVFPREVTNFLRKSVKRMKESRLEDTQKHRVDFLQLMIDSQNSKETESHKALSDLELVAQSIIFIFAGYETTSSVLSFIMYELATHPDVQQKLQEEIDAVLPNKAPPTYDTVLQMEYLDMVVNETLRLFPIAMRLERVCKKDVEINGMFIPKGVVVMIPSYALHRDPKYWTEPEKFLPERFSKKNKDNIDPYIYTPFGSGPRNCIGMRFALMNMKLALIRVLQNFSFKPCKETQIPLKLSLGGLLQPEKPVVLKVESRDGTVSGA
CYP2C9, sequence (P11712 whole entry): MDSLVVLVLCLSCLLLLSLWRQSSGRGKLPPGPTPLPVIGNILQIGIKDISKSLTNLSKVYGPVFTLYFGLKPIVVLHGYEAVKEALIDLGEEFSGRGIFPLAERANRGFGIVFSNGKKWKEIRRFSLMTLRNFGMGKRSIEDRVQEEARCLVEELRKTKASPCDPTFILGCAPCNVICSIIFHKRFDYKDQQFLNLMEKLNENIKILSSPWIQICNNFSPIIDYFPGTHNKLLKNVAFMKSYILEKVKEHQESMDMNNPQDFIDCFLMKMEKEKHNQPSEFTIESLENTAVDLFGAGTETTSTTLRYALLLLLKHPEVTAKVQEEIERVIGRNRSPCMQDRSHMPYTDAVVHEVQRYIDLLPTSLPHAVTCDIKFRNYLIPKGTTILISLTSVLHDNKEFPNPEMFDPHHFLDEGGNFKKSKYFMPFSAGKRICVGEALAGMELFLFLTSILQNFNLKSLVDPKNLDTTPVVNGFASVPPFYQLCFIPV
T1 sequence (Q99538 18-323): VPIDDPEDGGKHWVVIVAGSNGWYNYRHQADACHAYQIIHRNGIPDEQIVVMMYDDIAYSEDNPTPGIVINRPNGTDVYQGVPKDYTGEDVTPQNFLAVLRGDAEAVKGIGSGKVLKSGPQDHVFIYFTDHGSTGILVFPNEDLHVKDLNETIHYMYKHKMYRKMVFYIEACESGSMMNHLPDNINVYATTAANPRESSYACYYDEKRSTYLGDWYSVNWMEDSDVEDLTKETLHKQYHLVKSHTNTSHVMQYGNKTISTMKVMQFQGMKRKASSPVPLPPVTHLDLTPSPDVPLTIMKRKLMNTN

On to `Nc1ccc(N2CCOCC2)c2nonc12` [Compound 11], for which the “amyloid plaque deposition (Thioflavin S)” value in the data set on 5XFAD mice (hippocampus, motor cortex, frontal cortex) was “decreased; also recorded: attenuated”. Also, in the data set with 5XFAD mice, the “concentration of Aβ 1-40 in brain lysates” value was “decreased” and the “concentration of Aβ 1-42 in brain lysates” value is on record as “decreased”. Also, the “Caspase-3 activity in OGD-treated neurons” value with Caspase-3 is recorded as “not observed”. On CYP3A4 (test concentration 3 μM), the “CYP inhibition, CYP3A4-Midazolam” value came out at 3.6%. At CYP3A4 (test concentration 10 μM), the “CYP inhibition, CYP3A4-Midazolam” value is 8.0%. Moreover, the “AEP activity in OGD-treated neurons” value in the data set with AEP is reported as “marked dose-dependent decrease”. Further, the “cleavage of APP after OGD” value in [1] (1 μM compound) is recorded as “blocked”. Moreover, in [2], the Pe was >25 10^−6 cm · s^−1 and the “blood-brain barrier permeability (in words)” value is “able to cross the blood-brain barrier”. Moreover, on CYP2C9 (test concentration 3 μM), the “CYP inhibition, CYP2C9” value turned out to be 4.3%. Moreover, the “CYP inhibition, CYP2C9” value at CYP2C9 (test concentration 10 μM) is recorded as 5.6%. The “Cathepsin activity in OGD-treated neurons” value with Cathepsin was “not observed”.

For `Cn1c(=O)[nH]c(=O)c2c1nc(S)n2CC(O)COc1ccc(Cl)cc1` (centres unmarked) [Compound 38], the “CYP inhibition, CYP3A4-Midazolam” value on CYP3A4 (test concentration 3 μM) turned out to be 7.3%; on CYP3A4 (test concentration 10 μM), 10.4%. For the same molecule, in data set [1] (0.1 μM compound), the “cleavage of APP after OGD” value is on record as “blocked”. Moreover, the Pe in data set [2] is 0.007 10^−6 cm · s^−1. Also, the “CYP inhibition, CYP2C9” value on CYP2C9 (test concentration 3 μM) amounted to 15.6%; on CYP2C9 (test concentration 10 μM), 17.1%.

Regarding `Sc1nnc(Nc2ccccc2)s1` [Compound BB1], the “IC50 in intact Pala cells” value in data set [3] is reported as “slightly larger IC50 values”.

For the origin of these results see US20170029388A1, “Treatment of Neurodegenerative Diseases with Asparagine Endopeptidase (AEP) Inhibitors and Compositions Related Thereto” (INTERCONTINENTAL GREAT BRANDS LLC, priority 2014, published 2017).
